Reference: patent US20040029244A1, “Phospholipase d effectors for therapy and screening” (priority 2003, published 2004)
Starred links: 1 amine or outer side, 2 acyl side, 3 side chain; linkers in the order of their positions; H or OH if unused. Positions of bridges follow the written chain, without caps; N, C: chain ends. Non-standard residues stand in square brackets, D forms with d. Residues, ends and D or L forms follow the SMILES beside them. Chains are numbered I, II in the order given. Actinocin(9to1) = Cc1c2oc3c(C)ccc(C(=O)[*:1])c3nc-2c(C(=O)[*:2])c(N)c1=O; NMeV = CN[C@H](C(=O)O)C(C)C; Sar = CNCC(=O)O

Key:
Type in all cases: cell-based, human
[1] = system: MMP-9 secretion from HT 1080 cells; assay: MMP-9 secretion and activity assay (zymogram gels of cell medium); conditions: for MMP-9 secretion in response to various PMA concentrations at 133 mM alcohol: 133 mM alcohol 45 min before PMA, FIG. 4B; for effect on PMA-induced MMP-9 secretion at 200 mM alcohol: 200 mM alcohol 45 min before 100 nM PMA
Experimental: FIG. 4. […] Overnight serum-deprived cells were incubated in freshly added DMEM, 0.1% BSA. A, the indicated concentrations of either 2-propanol or 1-propanol were then added. After 45 min, 100 nM PMA-was added and cells were incubated for 7.5 h after which media samples (5 ? l) were analyzed for MMP-9 secretion. B, the cells were incubated with 133 mM 2-propanol or 1-propanol for 45 min. PMAa was then introduced to give the indicated concentrations. The cells were incubated for 7.5 h after which 5 ? l media samples were analyzed for MMP-9 secretion. The data shown are representative of three independent experiments. […]
MMP-9 secretion and activity assay Before assay, the cell medium was replaced with fresh DMEM, 0.1% BSA containing, unless otherwise described, 100 nM PMA. In experiments involving inhibition with BFA, it was added 30 min before induction with PMA. Medium samples were collected after 7.5 h and loaded with non-reducing sample buffer (2% SDS, 10% glycerol in 62.5 mM Tris pH 6.8) on zymogram gels. Before developing, gels were rinsed for 30 min in renaturing buffer and then 30 min in developing buffer at room temperature. Gels were incubated in fresh developing buffer for 18 h at 37° C. MMP-9 activity was indicated by the clear 92 kDa band that appeared after staining with Coomassie brilliant blue and removing excess dye by an 18 h rinse in water. Gels were dried and scanned and then the image was inverted (clear to black and black to clear).

[2] = system: MMP-9 expression in HT 1080 cells; assay: Cell lysis and immunoblotting with rabbit anti MMP-9; conditions: 7.5 h
Experimental: FIG. 6. Phophatidic acid mediates protein kinase C induction of MMP-9 expression. A, Overnight serum-deprived cells were incubated in freshly added DMEM, 0.1% BSA containing either 100 nM PMA or 80 ? g/ml DDPA. B. Overnight serum-deprived cells were incubated in freshly added DMEM, 0.1% BSA containing 0.5% of either 1-propanol or 2-propanol for control. Following 7.5 h incubation cells were lysed with RIPA buffer and 15 ? g whole cell lysate were subjected to SDS-PAGE and immunoblotting with rabbit anti MMP-9. Immunoreactive bands were visualized using the ECL reaction. The data shown are representative of three independent experiments.
Cell lysis and immunoblotting Overnight serum-deprived cells in 60 mm plates were washed with PBS and then lysed with 750 μl RIPA^− buffer (1% NP-40, 0.1% SDS, 100 mM NaF, 10 mM Na pyrophosphate, 2.5 mM Na3VO4 in PBS). RIPA^− soluble fraction was separated from the non-solube fraction by 15 min centrifugation in a bench top microcentrifuge at 14,000 rpm at 4° C. Protein samples (15 μg) were analyzed after SDS-polyacrylamide gel electrophoresis (SDS-PAGE) by immunoblotting with rabbit anti MMP-9 or anti actin diluted according to manufacturer instructions in PBS, 0.5% Tween 20 and 5% dry milk powder and with horseradish peroxidase-labeled secondary antibody. Immunoreactive bands were visualized by the enhanced chemiluminescence (ECL) reaction.

PLD in HT 1080 cells = assay: In vivo PLD assay ([3H]phosphatidylbutanol formation in labeled cells)
Experimental: FIG. 2. Activation of PLD in PMA-treated HT 1080 cells. The cells, at their log phase of growth, were serum deprived and labeled with […] [^3H]myristic acid. Following washing and preincubation with DMEM, 0.1% BSA, 0.3% 1-butanol for 20 min, and 100 nM PMA were added, and cells were incubated for the indicated times at 37° C. Lipids were extracted and analyzed, and the production of labelled phosphatidylbutanol ([^3H]PtdBut) was measured as described under “Materials and Methods”. The values obtained for [^3H]PtdBut were normalized by dividing the measured counts/min by counts/min in the total lipid fraction. Data are expressed as the mean±S.E. of the fold activation in three independent experiments performed in triplicates.
In vivo PLD assay Serum-deprived cells were labeled for 18 h with 1 μCi/ml [^3H]myristic acid and were washed with DMEM, 0.1% BSA. Following 20 min preincubation in DMEM, 0.1% BSA, 0.3% 1-butanol, the cells were stimulated with, unless otherwise described, 100 nM PMA for 20 min. Cells were washed with phosphate saline buffer (PBS) (2.68 mM KC1, 1.47 mM KH2PO4, 8.05 mM Na2PO4, 137 mM NaC1), 0.1% BSA, scraped with 1 ml ice cold CH3OH and transferred into glass tubes. CHC13 and 0.1 N HC1 were added to a final ratio of 1:1:1. The lipid-containing lower phase was collected, dried and dissolved in 30 μl CH3OH, CHC13 (1:1). The samples were loaded on a TLC plate which was developed in the lower phase of H2O, ethylacetate, acetic acid and iso-octane (100:110:20:50 respectively). Tritiated phosphatidylbutanol (PdtBut) was measured after scraping the band corresponding to the PtdBut standard (Avanti Polar Lipids).

**Q.** What does the source list for `CCCO` [1-propanol]?
**A.** effect on PMA-induced MMP-9 secretion at 100 mM alcohol ([1]; 100 mM alcohol 45 min before 100 nM PMA, 7.5 h, FIG. 4A): inhibited; MMP-9 secretion in response to various PMA concentrations at 133 mM alcohol ([1]; 7.5 h): almost totally suppressed; effect on PMA-induced MMP-9 secretion at 200 mM alcohol ([1]; 7.5 h, FIG. 4A): almost absolute suppression; MMP-9 expression in PMA-treated cells (immunoblot) ([2]; 0.5% alcohol pretreatment, PMA, whole cell lysate, FIG. 6): suppressed

**Q.** Which “induction of MMP-9 expression (immunoblot)” value ([2]; HT 1080 cells, 80 μg/ml DDPA, FIG. 6A) does the source give for phosphatidic acid [PA] here?
**A.** induces de novo MMP-9 expression

**Q.** For `Cc1c2oc3c(C)ccc(C(=O)N[C@@H]4C(=O)N[C@H](C(C)C)C(=O)N5CCC[C@H]5C(=O)N(C)CC(=O)N(C)[C@@H](C(C)C)C(=O)O[C@@H]4C)c3nc-2c(C(=O)N[C@@H]2C(=O)N[C@H](C(C)C)C(=O)N3CCC[C@H]3C(=O)N(C)CC(=O)N(C)[C@@H](C(C)C)C(=O)O[C@@H]2C)c(N)c1=O` [ActD, actinomycin D] (I: T[dV]P[Sar][NMeV] / II: T[dV]P[Sar][NMeV]; ester I:1-I:C, II:1-II:C; linker I:N-II:N via Actinocin(9to1)), which “effect on MMP-9 secretion induced with phosphatidic acid” value ([1]; 10 μg/ml ActD 45 min, then 80 μg/ml DDPA, 7.5 h, FIG. 5) is on record?
**A.** fully decreased

**Q.** What does the source list for `CCCCCCCCCCCCCC(=O)O[C@@H]1[C@@H](C)[C@@]2(O)[C@@H](C=C(CO)C[C@]3(O)C(=O)C(C)=C[C@@H]23)[C@@H]2C(C)(C)[C@]12OC(C)=O` [PMA, phorbol 12-myristate 13-acetate]?
**A.** MMP-9 activity accumulating in the medium of treated cells ([1]; HT 1080 cells, 100 nM PMA, various times up to 7.5 h): time-dependent manner; lowest concentrations at which MMP-9 secretion is detected ([1]; HT 1080 cells, 7.5 h, FIG. 1B): 0.5 to 1 nM; time at which PtdBut formation (PLD activity) reaches a maximum (PLD in HT 1080 cells; 100 nM PMA, 0.3% 1-butanol, FIG. 2): 90 min; concentration at which the PLD response is detectable (PLD in HT 1080 cells; HT 1080 cells, data not shown): 1 nM; concentration at which the PLD response is maximal (PLD in HT 1080 cells; HT 1080 cells, data not shown): 100 nM

**Q.** What does the source list for `CC(C)O` [2-propanol]?
**A.** MMP-9 secretion in response to various PMA concentrations at 133 mM alcohol ([1]; 7.5 h): continues to be dose-dependent; effect on PMA-induced MMP-9 secretion at 200 mM alcohol ([1]; 7.5 h, FIG. 4A): inhibitory

**Q.** How did the “induction of MMP-9 secretion” value ([1]; HT 1080 cells, various concentrations, 7.5 h, FIG. 3) turn out when diodecanoylphosphatidic acid [DDPA] was run?
**A.** induces MMP-9 secretion in a dose-dependent manner

**Q.** `Cn1cc(C2=C(c3cn(CCCSC(=N)N)c4ccccc34)C(=O)NC2=O)c2ccccc21` [Ro 31-8220] was tested. Which “effect on PMA-induced MMP-9 secretion” value ([1]; 5 μM inhibitor preincubated 1 h, then 100 nM PMA, 7.5 h, FIG. 1C) did it give?
**A.** inhibition of secretion
